Experimental data published in ChEMBL document CHEMBL2062378, “Antimycobacterial activity: a facile three-component [3+2]-cycloaddition for the regioselective synthesis of highly functionalised dispiropyrrolidines” (Bioorg Med Chem Lett, 2012).
Converted amounts (≈) assume the structure as drawn.

Test system: Mycobacterium tuberculosis
Test: Antimycobacterial activity against INH-resistant Mycobacterium tuberculosis by alamar blue broth microdilution assay
Type: functional

Row | SMILES | MIC90 [µM]
1 | CN1CC(c2ccccc2)C2(Cc3ccccc3C2=O)C12C(=O)c1ccccc1C2=O (stereo not drawn) | 26.2 (≈ 10.7 µg/mL)
2 | CN1CC(c2cncc(-c3ccc(F)cc3)c2)C2(Cc3ccccc3C2=O)C12C(=O)c1ccccc1C2=O (stereo not drawn) | 5.12 (≈ 2.57 µg/mL)
3 | CN1CC(c2ccc(Cl)cc2)C2(Cc3ccccc3C2=O)C12C(=O)c1ccccc1C2=O (stereo not drawn) | 24.2 (≈ 10.7 µg/mL)
4 | CN1CC(c2ccc(Br)cc2)C2(Cc3ccccc3C2=O)C12C(=O)c1ccccc1C2=O (stereo not drawn) | 21.4 (≈ 10.4 µg/mL)
5 | CN1CC(c2ccc(C(=O)O)cc2)C2(Cc3ccccc3C2=O)C12C(=O)c1ccccc1C2=O (stereo not drawn) | 18.3 (≈ 8.26 µg/mL)
6 | CN1CC(c2cccc([N+](=O)[O-])c2)C2(Cc3ccccc3C2=O)C12C(=O)c1ccccc1C2=O (stereo not drawn) | 16.8 (≈ 7.61 µg/mL)
7 | CN1CC(c2ccc(C(F)(F)F)cc2)C2(Cc3ccccc3C2=O)C12C(=O)c1ccccc1C2=O (stereo not drawn) | 13.6 (≈ 6.48 µg/mL)
8 | CN1CC(c2ccc(OC(F)(F)F)cc2)C2(Cc3ccccc3C2=O)C12C(=O)c1ccccc1C2=O (stereo not drawn) | 12.2 (≈ 6 µg/mL)
9 | COc1ccc(C2CN(C)C3(C(=O)c4ccccc4C3=O)C23Cc2ccccc2C3=O)cc1 (stereo not drawn) | > 6.25
10 | CN1CC(c2cccc3c2OCO3)C2(Cc3ccccc3C2=O)C12C(=O)c1ccccc1C2=O (stereo not drawn) | 32.4 (≈ 14.6 µg/mL)
11 | CN(C)c1ccc(C2CN(C)C3(C(=O)c4ccccc4C3=O)C23Cc2ccccc2C3=O)cc1 (stereo not drawn) | 43.3 (≈ 19.5 µg/mL)
12 | CN1CC(c2ccc(N3CCOCC3)cc2)C2(Cc3ccccc3C2=O)C12C(=O)c1ccccc1C2=O (stereo not drawn) | 27.2 (≈ 13.4 µg/mL)
13 | NNC(=O)c1ccncc1 [ISONIAZID] | 11.2 (≈ 1.54 µg/mL)
